In PMC3200184, “In vitro anti-plasmodial activity of Dicoma anomala subsp. gerrardii (Asteraceae): identification of its main active constituent, structure-activity relationship studies and gene expression profiling” (Malaria Journal, 2011):
Like-named read-outs stand apart in the source and are kept apart here. Blank lines part the entries; values can stand above or below the molecule they belong to.

Legend:
[1] = system: P. falciparum chloroquine-sensitive D10 strain; experiment: pLDH in vitro anti-malarial assay, D10 strain; assay type: cell-based, Plasmodium falciparum; conditions: for IC50: Plasmodium falciparum; for Anti-malarial activity (in words): D10 strain, SAR discussion
Description: (§1) Asexual P. falciparum chloroquine-sensitive 3D7 and D10 cultures, as well as chloroquine-resistant K1 strain cultures, were maintained and synchronized according to established methods in an atmosphere consisting of 5% oxygen, 5% carbon dioxide and 90% nitrogen. The parasites were maintained at a 5% haematocrit in RPMI 1640 medium supplemented with 25 mM HEPES, 22 mM glucose, 0.0088% hypoxanthine, 40 ug/mL gentamycin (all Sigma) and 0.5% Albumax (Invitrogen).
(§2) The anti-plasmodial activities of the extracts and pure compounds were determined against the chloroquine-sensitive D10 and the chloroquine-resistant K1 strains via the parasite lactate dehydrogenase (pLDH) assay. All test substances were stored at -20°C prior to testing. […] Chloroquine diphosphate (Sigma) was used as a reference drug in all experiments. The test substances were evaluated as ten serial two-fold dilutions (0.2 - 100 μg/mL final concentration) in medium (two replicates per concentration point) in duplicate wells. […] Test solutions were mixed with suspensions of infected human red blood cells to achieve a final haematocrit of 1% and parasitaemia of 2% and incubated for 48 h in microtitre plates (250 uL final volume). Incubation conditions were as described above for the routine maintenance of the P. falciparum cultures. The IC50 values, serving as a measure for anti-plasmodial activities, were calculated by non-linear regression dose-response analysis using GraphPad Prism v.4.0 software.

[2] = system: P. falciparum chloroquine-resistant K1 strain; experiment: microbe, parasite or virus in culture; assay type: cell-based; conditions: Plasmodium falciparum
Description: as §1, §2

[3] = system: Chinese hamster ovary (CHO) cell line; experiment: MTT in vitro cytotoxicity assay; assay type: cell-based; conditions: for IC50: Cricetulus griseus, read-out: CHO IC50 (μM) n = 2; for Mammalian toxicity, CHO (in words): SAR discussion
Description: Compounds were tested for in vitro cytotoxicity against a Chinese hamster ovary (CHO) cell line using the MTT [3-(4,5-dimethylthiazol-2-yl)-2,5-diphenyltetrazolium bromide] assay. The CHO cells were cultured in DMEM: Hams F-12 medium (1:1) supplemented with 10% heat-inactivated foetal calf serum (FCS) and gentamycin ([…]) (Highveld Biological, RSA). Samples were dissolved in 10% MeOH. Stock solutions (2 mg/mL) were prepared and were stored at -20°C until use. The samples were added to CHO cells as five ten-fold serial dilutions ranging from 100 - 0.01 μg/mL. A serial dilution of emetine (100 - 0.001 μg/mL) was used as a positive control. Cells were seeded in 96-well plates at a concentration of 10^5/mL (100 μL per well) and incubated at 37°C for 24 h in a humidified 5% CO2-air atmosphere. The medium was subsequently aspirated from the wells and replaced with 200 μL of the test compound dilutions. The microplates were incubated at 37°C for 48 h, after which 25 μL of sterile MTT (5 mg/mL in PBS) was added to each well and incubation was continued for 4 h at 37°C. Formazan crystals formed by viable cells were dissolved in DMSO and quantitated by measuring absorbance at 540 nm in a microtitre plate reader (Cambridge Technologies). Cell viabilities were calculated relative to reference wells containing no test compounds (positive cell controls) and no cells (background controls), plotted against log[test sample] and IC50 values derived by non-linear regression analysis using GraphPad Prism v.4.0 software.

P. falciparum 3D7 [4] = experiment: Dose-response curves on P. falciparum 3D7 (IC99 for treatment); assay type: cell-based, Plasmodium falciparum; conditions: P. falciparum 3D7, determined from dose-response curves
Description: as §1
A morphological comparison between compound 1 treated versus untreated parasites was performed to assess the effect of treatment and to establish sampling times, by examining the stage-specific progression of parasites across the intra-erythrocytic development cycle. The solvent (DMSO) or compound 1 was added in the window shortly after red blood cell (RBC) invasion and parasite development was monitored 6 hourly over a 48 h period using conventional Giemsa-stained smears. Fresh cultures were scaled up to 50 ml (5% hematocrit, 10% parasitemia), synchronized twice and treated with compound 1 in the window around invasion. Fifteen milliliters of culture was harvested at each of the stages used for transcriptional analyses (2, 6 and 12 hpt). Similar volumes were harvested from untreated P. falciparum 3D7 control cultures at the same time points. Parallel drug treatments were conducted, serving as biological replicates. […]

P. falciparum 3D7 [5] = experiment: Morphological analysis of treated ring-stage parasites (Giemsa smears); assay type: cell-based, Plasmodium falciparum; conditions: 3D7, treated at early ring stage with 12.5 μM, followed over 48 h
Description: A morphological comparison between compound 1 treated versus untreated parasites was performed to assess the effect of treatment and to establish sampling times, by examining the stage-specific progression of parasites across the intra-erythrocytic development cycle. The solvent (DMSO) or compound 1 was added in the window shortly after red blood cell (RBC) invasion and parasite development was monitored 6 hourly over a 48 h period using conventional Giemsa-stained smears. Fresh cultures were scaled up to 50 ml (5% hematocrit, 10% parasitemia), synchronized twice and treated with compound 1 in the window around invasion. Fifteen milliliters of culture was harvested at each of the stages used for transcriptional analyses (2, 6 and 12 hpt). Similar volumes were harvested from untreated P. falciparum 3D7 control cultures at the same time points. Parallel drug treatments were conducted, serving as biological replicates. RNA was extracted from the frozen erythrocyte pellets as described.
A morphological analysis was performed with dehydrobrachylaenolide to ascertain the point during intra-erythrocytic development at which P. falciparum 3D7 growth was affected. […] Based on these morphological observations and the apparent rapid effect of dehydrobrachylaenolide on P. falciparum development, sampling times for transcriptional analysis were subsequently determined as 2, 6 and 12 hpt. […]

NCI's 60-cell line panel = system: NCI's 60-cell line panel; set-up: method as in earlier work; conditions: selectivity trend towards the leukaemia sub-panel; cited from earlier work
[6] = system: induction of intracellular adhesion molecule-1 (ICAM-1); set-up: method as in PMID 12762788; conditions: cited from earlier work
[7] = D10, 48 h, read-out: D10 IC50 (μM) n = 8
[8] = D10, read-out: D10 strain IC50 (μM) n = 2
[9] = K1, 48 h, read-out: K1 IC50 (μM) n = 4
[10] = K1, read-out: K1 strain IC50 (μM) n = 2
[11] = read-out: D10 strain IC50 (μM) n = 2, Table 2, D10, pLDH assay, parent compound n = 8

SMILES: C=C1C(=O)C=C[C@]2(C)CC[C@H]3C(=C)C(=O)O[C@H]3[C@@H]12 [Compound 1, 3-oxoeudesma-1,4(15),11(13)-triene-12,6α-lide]
IC50 [1, 7]: 1.86 ± 0.254 µM | IC50 [1, 8]: 1.86 µM | IC50 ([1]; D10, read-out: IC50 against D10 strain): 0.455 µg/mL | IC50 [2, 9]: 4.09 ± 0.579 µM | IC50 ([2]; K1, read-out: IC50 against K1 strain): 1 µg/mL | IC50 [2, 10]: 4.09 µM | IC50 ([3]; CHO, 48 h): 17.2 µM | IC50 ([3]; CHO): 17.2 µM | IC99 (treatment concentration) (P. falciparum 3D7 [4]): 12.5 µM | Morphological effect on intra-erythrocytic development (P. falciparum 3D7 [5]): Treated parasites remained arrested in the ring phase | Anti-cancer activity (in words) (NCI's 60-cell line panel): significant anti-cancer activity | Activity toward ICAM-1 induction (in words) [6]: inhibitory activity

IC50 [1, 11]: 22.1 µM
SMILES: C=C1C(=O)C[C@H]2C1CCC1(C)CCC(=O)C(C)C21 (stereo partly drawn) [Compound 5, (9bS)-5a,9-Dimethyl-3-methyleneoctahydro-1H-cyclopenta[a]naphthalene-2,8(3H,9bH)-dione]
Anti-malarial activity (in words) [1]: moderate anti-malarial activity | Mammalian toxicity, CHO (in words) ([3]; CHO cells): substantially reduced | IC50 ([3]; Table 2, CHO cells, MTT): 124 µM

SMILES: CCN(CC)CCCC(C)Nc1ccnc2cc(Cl)ccc12 (centres unmarked) [Chloroquine, Chloroquine diphosphate, reference compound]
IC50 [1, 7]: 0.038 µM | IC50 [2, 9]: 0.2 µM | IC50 ([3]; CHO, 48 h): 35.8 µM

IC50 [1, 11]: > 40 µM
SMILES: C[C@@H]1C(=O)O[C@H]2[C@H]1CC[C@@]1(C)CCC(=O)[C@H](C)[C@H]21 [Compound 4, (3S,3aS,5aS,9R,9aS,9bS)-3,5a,9-trimethyl-octahydronaphtho[1,2-b]furan-2,8(3H,9bH)-dione]
Anti-malarial activity (in words) [1]: lacking both activity and toxicity | Mammalian toxicity, CHO (in words) ([3]; CHO cells): lacking both activity and toxicity | IC50 ([3]; Table 2, CHO cells, MTT): > 400 µM

SMILES: C=C1C(=O)O[C@@H]2C3=C(C)C(=O)C=C[C@]3(C)CC[C@@H]12 [Compound 2, (3aS,5aS,9bS)-5a,9-dimethyl-3-methylene-3a,4,5,5a-tetrahydronaphtho[1,2-b]furan-2,8(3H,9bH)-dione]
Anti-malarial activity (in words) [1]: six-fold less active | IC50 [1, 8]: 11.5 µM | IC50 [2, 10]: 9.05 µM | IC50 ([3]; CHO): 7.01 µM

SMILES: CC1=C2[C@H]3OC(=O)[C@@H](C)[C@@H]3CC[C@@]2(C)C=CC1=O [Compound 3, santonin]
Anti-malarial activity (in words) [1]: devoid of any significant anti-malarial activity | IC50 [1, 8]: > 40 µM | Mammalian toxicity, CHO (in words) ([3]; CHO cells): devoid of any significant anti-malarial activity or mammalian toxicity | IC50 ([3]; CHO): > 400 µM

SMILES: C=C1C(=O)O[C@@H]2[C@H]3[C@@H](C)C(=O)C=C[C@]3(C)CC[C@@H]12 [Compound 6, (3aS,5aS,9R,9aS,9bS)-5a,9-dimethyl-3-methylene-3a,4,5,5a,9,9a-hexahydronaphtho[1,2-b]furan-2,8(3H,9bH)-dione]
Anti-malarial activity (in words) [1]: no significant improvement in anti-malarial activity | IC50 [1, 8]: 16.9 µM | Mammalian toxicity, CHO (in words) ([3]; CHO cells): increased mammalian cell toxicity | IC50 ([3]; CHO): 41.9 µM
